Regarding `Cc1ccc2c(C3=NC(C)(C)C(F)(F)c4ccccc43)cnn2c1C` [X.011, 1-(6,7-dimethylpyrazolo[1,5-a]pyridin-3-yl)-4,4-difluoro-3,3-dimethyl-isoquinoline], the melting point (usually the temperature of the solid-liquid transition) fell in the range of 160 to 161 °C.

Regarding `Cc1c(Cl)ccc2c(C3=NC(C)(C)C(F)(F)c4ccccc43)cnn12` [X.001, 1-(6-chloro-7-methyl-pyrazolo[1,5-a]pyridin-3-yl)-4,4-difluoro-3,3-dimethyl-isoquinoline], the melting point fell in the range of 166 to 168 °C. `Cc1cccc2c(C3=NC(C)(C)C(C)(C)c4c(F)cccc43)cnn12` [X.013, 5-fluoro-3,3,4,4-tetramethyl-1-(7-methylpyrazolo[1,5-a]pyridin-3-yl)isoquinoline] yielded a melting point of 134 to 136 °C.

With `Cc1ccn2c(C3=NC(C)(C)C(F)(F)c4ccccc43)cnc2c1C` [X.014, 1-(7,8-dimethylimidazo[1,2-a]pyridin-3-yl)-4,4-difluoro-3,3-dimethyl-isoquinoline], the melting point was in the range of 159 to 161 °C. On to `CC1(C)N=C(c2cnn3cc(Cl)ccc23)c2ccccc2C1(F)F` [X.003, 1-(6-chloropyrazolo[1,5-a]pyridin-3-yl)-4,4-difluoro-3,3-dimethyl-isoquinoline], for which the melting point lay in the range of 113 to 118 °C. The compound `Cc1ccn2c(C3=NC(C)(C)C(C)(C)c4c(F)cccc43)cnc2c1C` [X.016, 1-(7,8-dimethylimidazo[1,2-a]pyridin-3-yl)-5-fluoro-3,3,4,4-tetramethyl-isoquinoline] had a melting point of 185 to 186 °C. Turning to `Cc1ccc2c(C3=NC(C)(C)C(F)(F)c4ccccc43)cnn2c1` [X.005, 4,4-difluoro-3,3-dimethyl-1-(6-methylpyrazolo[1,5-a]pyridin-3-yl)isoquinoline], the melting point is 105 to 107 °C. As for `Cc1c(Br)ccc2c(C3=NC(C)(C)C(F)(F)c4ccccc43)cnn12` [X.007, 1-(6-bromo-7-methyl-pyrazolo[1,5-a]pyridin-3-yl)-4,4-difluoro-3,3-dimethyl-isoquinoline], the melting point fell in the range of 180 to 182 °C.

In turn, `Cc1cccn2c(C3=NC(C)(C)C(C)(C)c4c(F)cccc43)cnc12` [X.019, 5-fluoro-3,3,4,4-tetramethyl-1-(8-methylimidazo[1,2-a]pyridin-3-yl)isoquinoline] displayed a melting point of 160 to 161 °C. The figure for `Cc1ccc2c(C3=NC(C)(C)C(C)(C)c4c(F)cccc43)cnn2c1C` [X.012, 1-(6,7-dimethylpyrazolo[1,5-a]pyridin-3-yl)-5-fluoro-3,3,4,4-tetramethyl-isoquinoline] is 175 to 176 °C; for `CC1(C)N=C(c2cnn3cc(Br)ccc23)c2ccccc2C1(F)F` [X.006, 1-(6-bromopyrazolo[1,5-a]pyridin-3-yl)-4,4-difluoro-3,3-dimethyl-isoquinoline] it is 127 to 129 °C.

These data come from patent US11124508B2 (priority 2017, dated 2021).
